This note sets out measurements from patent US6645983B1, “Pharmaceutical compositions comprising 4-quinolones for treating cancers” (Laboratoire L. Lafon, priority 1999, dated 2003).

As a reminder, the MTD is the highest dose tested that stayed within the study's limit of toxicity.

For one series, the system named is J82. In words: MTT test, cytotoxic activity on non-clonogenic cell lines. Format: cell-based. As to conditions: Homo sapiens, 10^−5 M, 72 hours incubation, MTT, mean value, read-out: mean optical density, expressed as percentage relative to the mean optical density under the control condition (100%). A digest of the protocol: (§1)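 Human bladder cancer lines were seeded at 20 000–50 000 cells/ml and, after 24 h, exposed to compounds at 10^−5 to 10^−10 M against a solvent control. Formazan was dissolved in DMSO and viability was read by spectrophotometric optical density.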
For orientation: Formazan colour is commonly taken as a measure of viable cells.
In the case of `CCN(CC)c1cc(OC)cc2c1c(=O)c(-c1ccc(OC)cc1)cn2C` [CRL8437, 5-Diethylamino-7-methoxy-3-(4-methoxyphenyl)-1-methyl-1,4-dihydro-4-quinolinone], the viability at 10 µM was 98.7%.

`CCN(CC)C(=O)Cn1cc(-c2ccc(OC)cc2)c(=O)c2ccc(OC)cc21` [CRL8466, N,N-Diethyl-2-[7-methoxy-3-(4-methoxyphenyl)-4-oxo-1,4-dihydro-1-quinolinyl]acetamide]: the viability at 10 µM worked out at 93.1%.

For another series, the system named is T24. The description is as above. It is filed as cell-based. The note with it: Homo sapiens, T-24; T24; 10^−5 M; 72 hours incubation; MTT; mean value; read-out: mean optical density, expressed as percentage relative to the mean optical density under the control condition (100%). In a few lines:
as §1
With `CCN(CC)c1cc(OC)cc2c1c(=O)c(-c1ccc(OC)cc1)cn2C` [CRL8437, 5-Diethylamino-7-methoxy-3-(4-methoxyphenyl)-1-methyl-1,4-dihydro-4-quinolinone], the viability at 10 µM came to 93.1%.

For the compound `CCN(CC)C(=O)Cn1cc(-c2ccc(OC)cc2)c(=O)c2ccc(OC)cc21` [CRL8466, N,N-Diethyl-2-[7-methoxy-3-(4-methoxyphenyl)-4-oxo-1,4-dihydro-1-quinolinyl]acetamide], the viability at 10 µM was 69.5%.

For a further series, the system named is A549. The description is as above. It is filed as cell-based. As to conditions: Homo sapiens, 10^−5 M, 72 hours incubation, MTT, mean value, read-out: mean optical density, expressed as percentage relative to the mean optical density under the control condition (100%). A digest of the protocol:
(§2)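 Compounds span 10^−5 to 10^−10 M, with solvent-treated wells as control, and the formazan is quantified by absorbance after DMSO solubilization.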
In the case of `CCN(CC)c1cc(OC)cc2c1c(=O)c(-c1ccc(OC)cc1)cn2C` [CRL8437, 5-Diethylamino-7-methoxy-3-(4-methoxyphenyl)-1-methyl-1,4-dihydro-4-quinolinone], the viability at 10 µM stood at 102%.

On to `CCN(CC)C(=O)Cn1cc(-c2ccc(OC)cc2)c(=O)c2ccc(OC)cc21` [CRL8466, N,N-Diethyl-2-[7-methoxy-3-(4-methoxyphenyl)-4-oxo-1,4-dihydro-1-quinolinyl]acetamide], for which the viability at 10 µM came to 101%.

A further series relates to LoVo. The description is as above. Format: cell-based. The note with it: Homo sapiens, 10^−5 M, 72 hours incubation, MTT, mean value, read-out: mean optical density, expressed as percentage relative to the mean optical density under the control condition (100%). In a few lines: as §2
For the compound `CCN(CC)c1cc(OC)cc2c1c(=O)c(-c1ccc(OC)cc1)cn2C` [CRL8437, 5-Diethylamino-7-methoxy-3-(4-methoxyphenyl)-1-methyl-1,4-dihydro-4-quinolinone], the viability at 10 µM is 105%.

For the compound `CCN(CC)C(=O)Cn1cc(-c2ccc(OC)cc2)c(=O)c2ccc(OC)cc21` [CRL8466, N,N-Diethyl-2-[7-methoxy-3-(4-methoxyphenyl)-4-oxo-1,4-dihydro-1-quinolinyl]acetamide], the viability at 10 µM was 98.9%.

In another series the test system is MCF7. The series is described as above. Format: cell-based. The note with it: Homo sapiens, 10^−5 M, 72 hours incubation, MTT, mean value, read-out: mean optical density, expressed as percentage relative to the mean optical density under the control condition (100%). A digest of the protocol: as §2
On to `CCN(CC)c1cc(OC)cc2c1c(=O)c(-c1ccc(OC)cc1)cn2C` [CRL8437, 5-Diethylamino-7-methoxy-3-(4-methoxyphenyl)-1-methyl-1,4-dihydro-4-quinolinone], for which the viability at 10 µM came out at 97.7%.

Regarding `CCN(CC)C(=O)Cn1cc(-c2ccc(OC)cc2)c(=O)c2ccc(OC)cc21` [CRL8466, N,N-Diethyl-2-[7-methoxy-3-(4-methoxyphenyl)-4-oxo-1,4-dihydro-1-quinolinyl]acetamide], the viability at 10 µM was determined as 108%.

A further series concerns T-47D. The description is as above. The note with it: Homo sapiens, T47D; T-47D; 10^−5 M; 72 hours incubation; MTT; mean value; read-out: mean optical density, expressed as percentage relative to the mean optical density under the control condition (100%). It is filed as cell-based. In a few lines: as §2
On to `CCN(CC)c1cc(OC)cc2c1c(=O)c(-c1ccc(OC)cc1)cn2C` [CRL8437, 5-Diethylamino-7-methoxy-3-(4-methoxyphenyl)-1-methyl-1,4-dihydro-4-quinolinone], for which the viability at 10 µM came to 92.1%.

Take `CCN(CC)C(=O)Cn1cc(-c2ccc(OC)cc2)c(=O)c2ccc(OC)cc21` [CRL8466, N,N-Diethyl-2-[7-methoxy-3-(4-methoxyphenyl)-4-oxo-1,4-dihydro-1-quinolinyl]acetamide]: the viability at 10 µM amounted to 95.2%.

Another series has as its system HCT-15. The series is described as above. Format: cell-based. The note with it: Homo sapiens, HCT-16, 10^−5 M, 72 hours incubation, MTT, mean value, read-out: mean optical density, expressed as percentage relative to the mean optical density under the control condition (100%). In a few lines: as §2
Consider `CCN(CC)c1cc(OC)cc2c1c(=O)c(-c1ccc(OC)cc1)cn2C` [CRL8437, 5-Diethylamino-7-methoxy-3-(4-methoxyphenyl)-1-methyl-1,4-dihydro-4-quinolinone], for which the viability at 10 µM amounted to 110%.

Regarding `CCN(CC)C(=O)Cn1cc(-c2ccc(OC)cc2)c(=O)c2ccc(OC)cc21` [CRL8466, N,N-Diethyl-2-[7-methoxy-3-(4-methoxyphenyl)-4-oxo-1,4-dihydro-1-quinolinyl]acetamide], the viability at 10 µM is 96.1%.

In the next series the test system is U-87MG. The description is as above. It is filed as cell-based. The note with it: Homo sapiens; U-87MG; 10^−5 M; 72 hours incubation; MTT; mean value; read-out: mean optical density, expressed as percentage relative to the mean optical density under the control condition (100%). In a few lines:
as §2
In the case of `CCN(CC)c1cc(OC)cc2c1c(=O)c(-c1ccc(OC)cc1)cn2C` [CRL8437, 5-Diethylamino-7-methoxy-3-(4-methoxyphenyl)-1-methyl-1,4-dihydro-4-quinolinone], the viability at 10 µM was 99.4%.

As for `CCN(CC)C(=O)Cn1cc(-c2ccc(OC)cc2)c(=O)c2ccc(OC)cc21` [CRL8466, N,N-Diethyl-2-[7-methoxy-3-(4-methoxyphenyl)-4-oxo-1,4-dihydro-1-quinolinyl]acetamide], the viability at 10 µM stood at 97.2%.

Another series deals with U-373MG. The series is described as above. It is filed as cell-based. The note with it: Homo sapiens, U373 MG; U-373MG; 10^−5 M; 72 hours incubation; MTT; mean value; read-out: mean optical density, expressed as percentage relative to the mean optical density under the control condition (100%). A digest of the protocol:
as §2
In the case of `CCN(CC)c1cc(OC)cc2c1c(=O)c(-c1ccc(OC)cc1)cn2C` [CRL8437, 5-Diethylamino-7-methoxy-3-(4-methoxyphenyl)-1-methyl-1,4-dihydro-4-quinolinone], the viability at 10 µM amounted to 93.2%.

For the compound `CCN(CC)C(=O)Cn1cc(-c2ccc(OC)cc2)c(=O)c2ccc(OC)cc21` [CRL8466, N,N-Diethyl-2-[7-methoxy-3-(4-methoxyphenyl)-4-oxo-1,4-dihydro-1-quinolinyl]acetamide], the viability at 10 µM stood at 59.4%.

In another series the test system is A-427. The series is described as above. Format: cell-based. The note with it: Homo sapiens, 10^−5 M, 72 hours incubation, MTT, mean value, read-out: mean optical density, expressed as percentage relative to the mean optical density under the control condition (100%). A digest of the protocol: as §2
In the case of `CCN(CC)c1cc(OC)cc2c1c(=O)c(-c1ccc(OC)cc1)cn2C` [CRL8437, 5-Diethylamino-7-methoxy-3-(4-methoxyphenyl)-1-methyl-1,4-dihydro-4-quinolinone], the viability at 10 µM worked out at 108%.

On to `CCN(CC)C(=O)Cn1cc(-c2ccc(OC)cc2)c(=O)c2ccc(OC)cc21` [CRL8466, N,N-Diethyl-2-[7-methoxy-3-(4-methoxyphenyl)-4-oxo-1,4-dihydro-1-quinolinyl]acetamide], for which the viability at 10 µM was found to be 97.5%.

The next series has as its system PC-3. The series is described as above. Format: cell-based. As to conditions: Homo sapiens, 10^−5 M, 72 hours incubation, MTT, mean value, read-out: mean optical density, expressed as percentage relative to the mean optical density under the control condition (100%). A digest of the protocol:
as §2
Take `CCN(CC)c1cc(OC)cc2c1c(=O)c(-c1ccc(OC)cc1)cn2C` [CRL8437, 5-Diethylamino-7-methoxy-3-(4-methoxyphenyl)-1-methyl-1,4-dihydro-4-quinolinone]: the viability at 10 µM was 94.1%.

With `CCN(CC)C(=O)Cn1cc(-c2ccc(OC)cc2)c(=O)c2ccc(OC)cc21` [CRL8466, N,N-Diethyl-2-[7-methoxy-3-(4-methoxyphenyl)-4-oxo-1,4-dihydro-1-quinolinyl]acetamide], the viability at 10 µM came to 102%.

Tested on in a further series: not listed separately
Put plainly: Determination of the maximum tolerated dose (MTD). As to conditions: B6D2F1/Jico, mouse, in vivo, ip; single intraperitoneal administration, doses 2.5 to 160 mg/kg, survival over 14 days. In a few lines: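 Mice were 4- to 6-week-old B6D2F1/Jico. They received a single intraperitoneal dose of 2.5 to 160 mg/kg, and survival and body weight were followed for 14 days. MTD is given in mg/kg and is capped at 160 mg/kg by default.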
`CCN(CC)c1cc(OC)cc2c1c(=O)c(-c1ccc(OC)cc1)cn2C` [CRL8437, 5-Diethylamino-7-methoxy-3-(4-methoxyphenyl)-1-methyl-1,4-dihydro-4-quinolinone] yielded an MTD at 14 day above 160 mg/kg.

`CCN(CC)C(=O)Cn1cc(-c2ccc(OC)cc2)c(=O)c2ccc(OC)cc21` [CRL8466, N,N-Diethyl-2-[7-methoxy-3-(4-methoxyphenyl)-4-oxo-1,4-dihydro-1-quinolinyl]acetamide] registered an MTD at 14 day above 160 mg/kg.

The subject of the next series is SW1088. Put plainly: MTT test, cytotoxic activity on non-clonogenic cell lines. It is filed as cell-based. The note with it: Homo sapiens, 10^−5 M, 72 hours incubation, MTT, mean value, read-out: mean optical density, expressed as percentage relative to the mean optical density under the control condition (100%). In a few lines: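 Human astrocytoma SW1088 cells seeded, grown 24 h at 37° C, 5% CO2, then exposed to compounds at 10^−5 to 10^−10 M versus solvent control. Viability by MTT reduction: 3 h MTT incubation, formazan dissolved in DMSO and read by spectrophotometry.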
For the compound `CCN(CC)c1cc(OC)cc2c1c(=O)c(-c1ccc(OC)cc1)cn2C` [CRL8437, 5-Diethylamino-7-methoxy-3-(4-methoxyphenyl)-1-methyl-1,4-dihydro-4-quinolinone], the viability at 10 µM is 99.7%.

For `CCN(CC)C(=O)Cn1cc(-c2ccc(OC)cc2)c(=O)c2ccc(OC)cc21` [CRL8466, N,N-Diethyl-2-[7-methoxy-3-(4-methoxyphenyl)-4-oxo-1,4-dihydro-1-quinolinyl]acetamide], the viability at 10 µM is 102%.
